Laboratory results from US8563729B2, “Thienopyridone derivatives as AMP-activated protein kinase (AMPK) activators” (Merck Patent GmbH, priority 2008, dated 2013).

Legend:
[1] = target: T1, AMPK protein (recombinant α1β1γ2) (Homo sapiens, UniProt Q13131+Q9Y478); experiment: AMPK enzymatic activity (Delfia, AMARA peptide substrate); type: biochemical; details: compound 30 μM vs AMP 30 μM; 125 μM ATP; ratio 90% or higher = direct activator
T1 construct: made in house; host or cells: E. coli
Description: The following biological test allows the determination of the efficacy of such compounds of formula (I) onto AMPK protein (recombinant α1β1γ2).
Human recombinant AMPK enzyme was expressed in E. Coli and was reactivated in vitro by LKB1 prior to enzyme activity determination.
AMPK enzyme activities were assayed by using A Delfia technology. AMPK enzyme activities were carried out in microtiter plates (50 mM Hepes buffer, pH 7.4 with 125 μM ATP respectively) in the presence of a synthetic peptide substrate (AMARAASAAALARRR, the “AMARA” peptide) and activators in serial dilutions. Reactions were initiated by the addition of AMPK (50-100 ng). Following mixing, the plates were incubated for 30 min at room temperature. Enzyme activity was assayed by using an anti-phosphoserine antibody to measure the quantity of phosphate incorporated into the AMARAA.
(§1) N°: Number of the molecule
Activity: Ratio between the % of control (basal activity) of compound of formula (I) at 30 μM and the % of control (basal activity) of AMP (natural substrate) at 30 μM.
Compounds of formula (I) in the table II are considered as direct activator of AMPK if the ratio is 90% or higher.

[2] = test system: H-2 Kb cells; experiment: Glucose uptake in H-2 Kb cells (in vitro cellular test); type: cell-based, mouse; details: H-2 Kb cells differentiated in muscle, 4 hours incubation, 2-deoxy-D-[1,2 3H] glucose uptake 10 min
Description: Glucose Uptake in H-2 Kb Cells (In Vitro Cellular Test)
The following cellular test allows the determination of the effect of AMPK activators such as compounds of formula (I) onto glucose uptake in a muscle cellular model.
H-1-2 Kb cells derived from heterozygous H-2 Kb tsA58 transgenic mouse were grown in 24-well in plates coated with matrigel and were cultured at 33° C. for 4 days under permissive conditions, as described previously by Fryer et al. (Diabetes 49 (12): 1978, 2000).
For differentiation in muscle, cells were switched to non-permissive culture conditions (37° C. in the absence of interferon-γ). After 3 days, cells were incubated for 4 hours in DMEM 1 g/l glucose culture medium containing different concentrations of the tested molecules. Then glucose uptake was measured by incubating the cells for 10 min with radiolabelled 2-deoxy-D-[1,2 ^3H] glucose. Glucose uptake was terminated by rapidly washing the plates 2 times with ice-cold NaCl 0.9%. The cells were then solubilized in 0.1N NaOH for 30 min. Radioactivity was determined by liquid scintillation counting.
as §1
Activity (table III): Concentration of compound (I) for a glucose uptake equal or higher to glucose uptake induced by insulin (170 nM)
^++ or **concentration of compound (I) ≦10 micro Molar
^+ or *concentration of compound (I) >10 micro Molar

T1 sequence (Q13131 whole entry): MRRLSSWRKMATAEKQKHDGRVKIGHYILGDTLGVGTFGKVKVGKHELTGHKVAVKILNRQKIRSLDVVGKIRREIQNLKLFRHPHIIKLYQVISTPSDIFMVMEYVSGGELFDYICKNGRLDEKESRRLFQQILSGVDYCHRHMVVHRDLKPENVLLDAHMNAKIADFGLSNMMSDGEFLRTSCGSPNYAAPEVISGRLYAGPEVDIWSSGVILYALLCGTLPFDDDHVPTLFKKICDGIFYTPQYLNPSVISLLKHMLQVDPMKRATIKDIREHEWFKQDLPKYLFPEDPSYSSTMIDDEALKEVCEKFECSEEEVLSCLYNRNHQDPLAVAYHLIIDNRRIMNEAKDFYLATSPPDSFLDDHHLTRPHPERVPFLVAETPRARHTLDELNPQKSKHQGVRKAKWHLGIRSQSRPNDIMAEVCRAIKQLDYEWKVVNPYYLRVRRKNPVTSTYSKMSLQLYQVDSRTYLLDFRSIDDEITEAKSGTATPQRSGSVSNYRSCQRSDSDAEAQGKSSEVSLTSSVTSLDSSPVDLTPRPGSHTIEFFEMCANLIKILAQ
T1 sequence (Q9Y478 whole entry): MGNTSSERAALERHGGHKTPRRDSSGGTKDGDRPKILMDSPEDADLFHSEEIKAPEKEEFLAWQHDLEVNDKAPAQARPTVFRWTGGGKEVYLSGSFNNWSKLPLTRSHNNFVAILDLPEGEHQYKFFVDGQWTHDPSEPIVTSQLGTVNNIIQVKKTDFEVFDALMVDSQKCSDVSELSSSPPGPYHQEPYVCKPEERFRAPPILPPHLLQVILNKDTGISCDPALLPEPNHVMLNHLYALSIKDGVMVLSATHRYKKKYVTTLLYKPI
T1 sequence (Q9UGJ0 whole entry partner): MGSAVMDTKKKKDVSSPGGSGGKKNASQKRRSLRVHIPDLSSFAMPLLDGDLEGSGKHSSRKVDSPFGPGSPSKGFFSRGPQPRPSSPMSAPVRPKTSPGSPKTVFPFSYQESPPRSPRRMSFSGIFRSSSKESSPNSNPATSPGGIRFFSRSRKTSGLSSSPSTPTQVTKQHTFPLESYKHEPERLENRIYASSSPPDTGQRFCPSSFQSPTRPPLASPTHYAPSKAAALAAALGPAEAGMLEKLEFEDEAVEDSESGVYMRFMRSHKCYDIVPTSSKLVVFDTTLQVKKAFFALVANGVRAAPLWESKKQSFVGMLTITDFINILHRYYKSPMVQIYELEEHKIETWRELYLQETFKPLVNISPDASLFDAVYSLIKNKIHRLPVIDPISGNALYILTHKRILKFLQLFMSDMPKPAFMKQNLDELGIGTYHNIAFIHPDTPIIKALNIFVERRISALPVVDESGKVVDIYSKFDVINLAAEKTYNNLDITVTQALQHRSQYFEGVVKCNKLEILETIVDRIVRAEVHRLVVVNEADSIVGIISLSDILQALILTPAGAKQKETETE

N#Cc1sc2[nH]c(=O)c(-c3ccccc3)c(O)c2c1-c1ccccc1 [Compound 9, 2-cyano-3,5-diphenyl-4-hydroxy-6,7-dihydro-thieno[2,3-]pyridin-6-one]
activity: Ratio between the % of control (basal activity) of compound of formula (I) at 30 μM and the % of control (basal activity) of AMP at 30 μM [1]: 410% | Activity (table III): Concentration of compound (I) for a glucose uptake equal or higher to glucose uptake induced by insulin (170 nM) [2]: * (^+ or *concentration of compound (I) >10 micro Molar)

Cc1sc2[nH]c(=O)c(-c3ccccc3)c(O)c2c1-c1ccccc1 [Compound 10]
activity: Ratio between the % of control (basal activity) of compound of formula (I) at 30 μM and the % of control (basal activity) of AMP at 30 μM [1]: 96% | Activity (table III): Concentration of compound (I) for a glucose uptake equal or higher to glucose uptake induced by insulin (170 nM) [2]: * (^+ or *concentration of compound (I) >10 micro Molar)

COc1ccc(-c2c(O)c3c(-c4ccccc4)c(C)sc3[nH]c2=O)cc1 [Compound 13]
activity: Ratio between the % of control (basal activity) of compound of formula (I) at 30 μM and the % of control (basal activity) of AMP at 30 μM [1]: 126% | Activity (table III): Concentration of compound (I) for a glucose uptake equal or higher to glucose uptake induced by insulin (170 nM) [2]: * (^+ or *concentration of compound (I) >10 micro Molar)

Cc1sc2[nH]c(=O)c(-c3ccc(O)cc3)c(O)c2c1-c1ccccc1 [Compound 14]
activity: Ratio between the % of control (basal activity) of compound of formula (I) at 30 μM and the % of control (basal activity) of AMP at 30 μM [1]: 116% | Activity (table III): Concentration of compound (I) for a glucose uptake equal or higher to glucose uptake induced by insulin (170 nM) [2]: * (^+ or *concentration of compound (I) >10 micro Molar)

COc1cccc(-c2c(O)c3c(-c4ccccc4)c(C)sc3[nH]c2=O)c1 [Compound 15]
activity: Ratio between the % of control (basal activity) of compound of formula (I) at 30 μM and the % of control (basal activity) of AMP at 30 μM [1]: 181% | Activity (table III): Concentration of compound (I) for a glucose uptake equal or higher to glucose uptake induced by insulin (170 nM) [2]: * (^+ or *concentration of compound (I) >10 micro Molar)

COc1ccc(-c2c(O)c3c(-c4ccccc4)csc3[nH]c2=O)cc1 [Compound 19]
activity: Ratio between the % of control (basal activity) of compound of formula (I) at 30 μM and the % of control (basal activity) of AMP at 30 μM [1]: 96% | Activity (table III): Concentration of compound (I) for a glucose uptake equal or higher to glucose uptake induced by insulin (170 nM) [2]: * (^+ or *concentration of compound (I) >10 micro Molar)

O=c1[nH]c2scc(-c3ccccc3)c2c(O)c1-c1ccc(O)cc1 [Compound 20]
activity: Ratio between the % of control (basal activity) of compound of formula (I) at 30 μM and the % of control (basal activity) of AMP at 30 μM [1]: 99% | Activity (table III): Concentration of compound (I) for a glucose uptake equal or higher to glucose uptake induced by insulin (170 nM) [2]: * (^+ or *concentration of compound (I) >10 micro Molar)

CN(C)c1ccc(-c2c(O)c3c(-c4ccccc4)csc3[nH]c2=O)cc1 [Compound 22]
activity: Ratio between the % of control (basal activity) of compound of formula (I) at 30 μM and the % of control (basal activity) of AMP at 30 μM [1]: 121% | Activity (table III): Concentration of compound (I) for a glucose uptake equal or higher to glucose uptake induced by insulin (170 nM) [2]: ** (^++ or **concentration of compound (I) ≦10 micro Molar)

COc1cccc(-c2c(O)c3c(-c4ccccc4)csc3[nH]c2=O)c1 [Compound 23]
activity: Ratio between the % of control (basal activity) of compound of formula (I) at 30 μM and the % of control (basal activity) of AMP at 30 μM [1]: 202% | Activity (table III): Concentration of compound (I) for a glucose uptake equal or higher to glucose uptake induced by insulin (170 nM) [2]: * (^+ or *concentration of compound (I) >10 micro Molar)

O=c1[nH]c2scc(-c3ccc(Cl)cc3)c2c(O)c1-c1ccccc1 [Compound 26]
activity: Ratio between the % of control (basal activity) of compound of formula (I) at 30 μM and the % of control (basal activity) of AMP at 30 μM [1]: 128% | Activity (table III): Concentration of compound (I) for a glucose uptake equal or higher to glucose uptake induced by insulin (170 nM) [2]: * (^+ or *concentration of compound (I) >10 micro Molar)

O=c1[nH]c2scc(-c3ccc(F)cc3)c2c(O)c1-c1ccccc1 [Compound 27]
activity: Ratio between the % of control (basal activity) of compound of formula (I) at 30 μM and the % of control (basal activity) of AMP at 30 μM [1]: 114% | Activity (table III): Concentration of compound (I) for a glucose uptake equal or higher to glucose uptake induced by insulin (170 nM) [2]: * (^+ or *concentration of compound (I) >10 micro Molar)

O=c1[nH]c2scc(-c3ccc4ccccc4c3)c2c(O)c1-c1ccccc1 [Compound 33]
activity: Ratio between the % of control (basal activity) of compound of formula (I) at 30 μM and the % of control (basal activity) of AMP at 30 μM [1]: 201% | Activity (table III): Concentration of compound (I) for a glucose uptake equal or higher to glucose uptake induced by insulin (170 nM) [2]: * (^+ or *concentration of compound (I) >10 micro Molar)

O=c1[nH]c2scc(-c3ccc4ccccc4c3O)c2c(O)c1-c1ccccc1 [Compound 34]
activity: Ratio between the % of control (basal activity) of compound of formula (I) at 30 μM and the % of control (basal activity) of AMP at 30 μM [1]: 625% | Activity (table III): Concentration of compound (I) for a glucose uptake equal or higher to glucose uptake induced by insulin (170 nM) [2]: * (^+ or *concentration of compound (I) >10 micro Molar)

Cc1ccc(-c2csc3[nH]c(=O)c(-c4ccccc4)c(O)c23)cc1 [Compound 35]
activity: Ratio between the % of control (basal activity) of compound of formula (I) at 30 μM and the % of control (basal activity) of AMP at 30 μM [1]: 126% | Activity (table III): Concentration of compound (I) for a glucose uptake equal or higher to glucose uptake induced by insulin (170 nM) [2]: ** (^++ or **concentration of compound (I) ≦10 micro Molar)

O=c1[nH]c2scc(-c3ccc(C(F)(F)F)cc3)c2c(O)c1-c1ccccc1 [Compound 36]
activity: Ratio between the % of control (basal activity) of compound of formula (I) at 30 μM and the % of control (basal activity) of AMP at 30 μM [1]: 121% | Activity (table III): Concentration of compound (I) for a glucose uptake equal or higher to glucose uptake induced by insulin (170 nM) [2]: * (^+ or *concentration of compound (I) >10 micro Molar)
